Laboratory results published in ChEMBL document CHEMBL1136670, “Synthesis of quinolinyl/isoquinolinyl[a]pyrrolo [3,4-c] carbazoles as cyclin D1/CDK4 inhibitors” (Bioorg Med Chem Lett, 2003).

Experiments:
HCT-116 = test: Inhibition of human colon carcinoma (HCT116) cell proliferation; assay type: functional, cell-based
NCI-H460 = test: Inhibition of non-small cell lung carcinoma (NCI-460) cell proliferation; assay type: functional, cell-based; conditions: Homo sapiens
[1] = molecular target: Cyclin-dependent kinase 4/cyclin D1 (Homo sapiens, UniProt P11802); test: Inhibitory activity against cyclin D1/ (cyclin dependent kinase) CDK4; assay type: protein-complex assay
Sequence of Cyclin-dependent kinase 4/cyclin D1 (P11802 whole entry): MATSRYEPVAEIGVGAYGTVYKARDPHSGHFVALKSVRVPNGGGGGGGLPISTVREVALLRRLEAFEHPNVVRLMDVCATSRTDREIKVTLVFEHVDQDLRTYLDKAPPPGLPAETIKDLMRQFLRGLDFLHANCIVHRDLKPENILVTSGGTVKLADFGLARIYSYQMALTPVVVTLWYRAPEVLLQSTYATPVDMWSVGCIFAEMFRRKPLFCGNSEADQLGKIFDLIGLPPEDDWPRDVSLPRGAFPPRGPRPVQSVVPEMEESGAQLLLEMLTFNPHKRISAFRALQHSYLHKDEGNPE
Sequence of Cyclin-dependent kinase 4/cyclin D1 (P24385 whole entry, further chain): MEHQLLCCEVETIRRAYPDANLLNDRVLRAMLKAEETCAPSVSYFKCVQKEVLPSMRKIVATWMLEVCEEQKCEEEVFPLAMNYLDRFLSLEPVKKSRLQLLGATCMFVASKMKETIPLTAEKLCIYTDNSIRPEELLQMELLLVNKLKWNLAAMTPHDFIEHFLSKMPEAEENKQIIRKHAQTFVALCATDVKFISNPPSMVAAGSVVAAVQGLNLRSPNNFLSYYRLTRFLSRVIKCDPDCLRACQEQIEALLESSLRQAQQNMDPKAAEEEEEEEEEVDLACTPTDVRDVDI

Structure (SMILES) | IC50 (HCT-116) | IC50 (NCI-H460) | IC50 [1]
O=C1NC(=O)c2c1c1c3ccccc3ncc1c1[nH]c3cc(Cl)ccc3c21 | 650 nM | 450 nM | > 2000 nM
COc1ccc2c(c1)[nH]c1c3cnc4ccccc4c3c3c(c21)C(=O)NC3=O |  | 390 nM | 210 nM
CN(C)CCCn1c2ccccc2c2c3c(c4c5ccccc5cnc4c21)C(=O)NC3=O | 310 nM | 370 nM | 170 nM
O=C1NC(=O)c2c1c1c3ccccc3ncc1c1[nH]c3ccccc3c21 | 390 nM | 660 nM | 683 nM
O=C1NC(=O)c2c1c1nc3ccccc3cc1c1[nH]c3ccccc3c21 | 5510 nM | 4040 nM | > 10000 nM
O=C1NC(=O)c2c1c1cnc3ccccc3c1c1c2c2ccccc2n1CCCO |  |  | 1190 nM
O=C1NC(=O)c2c1c1c(ccc3cccnc31)c1[nH]c3ccccc3c21 | 800 nM | 3530 nM | > 2000 nM
O=C1NC(=O)c2c1c1c3cccnc3ccc1c1[nH]c3ccccc3c21 | 430 nM | 1910 nM | > 200 nM
CN(C)CCCCn1c2ccccc2c2c3c(c4c5ccccc5cnc4c21)C(=O)NC3=O |  |  | 1140 nM
O=C1NC(=O)c2c1c1c3ccccc3cnc1c1c2c2ccccc2n1CCCO | 160 nM | 410 nM | > 2000 nM
O=C1NC(=O)c2c1c1cnc3ccccc3c1c1[nH]c3ccccc3c21 | 1950 nM | 930 nM | > 10000 nM
O=C1NC(=O)c2c1c1c3ccccc3cnc1c1[nH]c3ccccc3c21 |  |  | > 2000 nM
O=C1NC(=O)c2c1c1c3ccccc3cnc1c1[nH]c3c(CCO)cccc3c21 |  |  | > 2000 nM
O=C1NC(=O)c2c1c1c3ccncc3ccc1c1[nH]c3ccccc3c21 | 130 nM | 74 nM | 69 nM
O=C1NC(=O)c2c1c1c3ccccc3cnc1c1c2c2ccccc2n1CCCCO |  |  | 1150 nM
